Source: US9199946B2, “Pyrimidinone carboxamide inhibitors of endothelial lipase” (BRISTOL-MYERS SQUIBB COMPANY, priority 2012, dated 2015)
pIC50: −log10 of the molar value.

Target: T1, Endothelial lipase (EL) (Homo sapiens, UniProt Q9Y5X9)
T1 construct: HT-1080 cells, which were transformed by RAGE technology (Athersys) to overexpress endogenous EL; endogenous in cells; conditioned medium used as the enzyme source
T1 sequence (Q9Y5X9 21-500): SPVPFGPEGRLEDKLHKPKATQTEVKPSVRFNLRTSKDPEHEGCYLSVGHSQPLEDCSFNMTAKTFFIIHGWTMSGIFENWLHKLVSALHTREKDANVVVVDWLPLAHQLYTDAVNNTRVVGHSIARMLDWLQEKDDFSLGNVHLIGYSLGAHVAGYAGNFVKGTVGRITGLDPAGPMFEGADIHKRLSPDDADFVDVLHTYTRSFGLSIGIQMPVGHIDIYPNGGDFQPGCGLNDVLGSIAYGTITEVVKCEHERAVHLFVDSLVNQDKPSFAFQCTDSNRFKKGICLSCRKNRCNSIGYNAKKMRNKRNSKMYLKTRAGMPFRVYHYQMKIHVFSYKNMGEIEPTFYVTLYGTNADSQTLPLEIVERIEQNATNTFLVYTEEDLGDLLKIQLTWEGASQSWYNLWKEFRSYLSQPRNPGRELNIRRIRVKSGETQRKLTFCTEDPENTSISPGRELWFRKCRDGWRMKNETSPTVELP
Assay: Endothelial lipase (EL) enzymatic assay with fluorescent substrate A10070 in DMPG vesicles
Format: biochemical
Settings: conditioned media from HT-1080 cells overexpressing endogenous EL; 20 min preincubation at 37° C.; read-out: EL IC50
Method in brief: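 EL activity was followed as a fluorescence rate (488/530 nm, reads every 20 s for 10 min, linear slope) on A10070 doped at 0.05 mole fraction into sonicated DMPG vesicles. Compound was first incubated 20 min at 37 °C, pH 8.0 HEPES/CaCl2 buffer, with conditioned media from EL-overexpressing HT-1080 cells.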

Row | pIC50 | SMILES
1 | 4.65 | COc1ccc2c(c1)C(NC(=O)c1[nH]c(=O)[nH]c(=O)c1N)CC2 (single isomer, unassigned) [Example 72, 5-amino-N-(6-methoxy-2,3-dihydro-1H-inden-1-yl)-2,6-dioxo-1,2,3,6-tetrahydropyrimidine-4-carboxamide]
2 | 5.48 | Nc1c(C(=O)NC2CCCc3ccsc32)[nH]c(=O)[nH]c1=O (stereo not drawn) [Example 46, 5-amino-2,6-dioxo-N-(4,5,6,7-tetrahydrobenzo[b]thiophen-7-yl)-1,2,3,6-tetrahydropyrimidine-4-carboxamide]
3 | 5.28 | O=C(N[C@H]1CC[C@@H](c2ccccc2)CC1)c1[nH]c(=O)[nH]c(=O)c1NCc1ccccn1 [Example 225, 2,6-dioxo-N-(cis-4-phenylcyclohexyl)-5-(pyridin-2-ylmethylamino)-1,2,3,6-tetrahydropyrimidine-4-carboxamide]
4 | 8.00 | O=C(N[C@H]1CCc2ccc(OCc3ccccc3)cc21)c1[nH]c(=O)[nH]c(=O)c1O [Example 259, (S)-N-(6-(benzyloxy)-2,3-dihydro-1H-inden-1-yl)-5-hydroxy-2,6-dioxo-1,2,3,6-tetrahydropyrimidine-4-carboxamide]
5 | 7.38 | Nc1c(C(=O)NC2CCN(c3ncccc3Cl)C2)[nH]c(=O)[nH]c1=O (stereo not drawn) [Example 186, 5-amino-N-(1-(3-chloropyridin-2-yl)pyrrolidin-3-yl)-2,6-dioxo-1,2,3,6-tetrahydropyrimidine-4-carboxamide]

Same assay, conditions: range observed in the EL assay; read-out: EL IC50 values

Row | pIC50 | SMILES
6 | ≥ 5.00 | Nc1c(C(=O)N[C@@H]2CCc3c(Cl)cc(Cl)cc32)[nH]c(=O)[nH]c1=O [Example 5, (R)-5-amino-N-(4,6-dichloro-2,3-dihydro-1H-inden-1-yl)-2,6-dioxo-1,2,3,6-tetrahydropyrimidine-4-carboxamide]
7 | ≥ 5.00 | CO[C@]1(c2ccc(F)cc2)CC[C@@H](NC(=O)c2[nH]c(=O)[nH]c(=O)c2N)CC1 [Example 4, 5-amino-N-(cis-4-(4-fluorophenyl)-4-methoxycyclohexyl)-2,6-dioxo-1,2,3,6-tetrahydropyrimidine-4-carboxamide]
8 | ≥ 5.00 | O=C(N[C@@H]1CCc2ccc(C(F)(F)F)cc21)c1[nH]c(=O)[nH]c(=O)c1O [Example 248, (R)-5-hydroxy-2,6-dioxo-N-(6-(trifluoromethyl)-2,3-dihydro-1H-inden-1-yl)-1,2,3,6-tetrahydropyrimidine-4-carboxamide]
9 | ≥ 5.00 | Nc1c(C(=O)N[C@H]2CCCc3cc(OCc4ccccc4)ccc32)[nH]c(=O)[nH]c1=O [Example 93, (S)-5-amino-N-(6-(benzyloxy)-1,2,3,4-tetrahydronaphthalen-1-yl)-2,6-dioxo-1,2,3,6-tetrahydropyrimidine-4-carboxamide]
10 | ≥ 5.00 | O=C(N[C@H]1CC[C@@H](c2ccccc2)CC1)c1[nH]c(=O)[nH]c(=O)c1NCCN1CCCCC1 [Example 237, 2,6-dioxo-N-((1s,4s)-4-phenylcyclohexyl)-5-(2-(piperidin-1-yl)ethylamino)-1,2,3,6-tetrahydropyrimidine-4-carboxamide]
11 | ≥ 5.00 | Nc1c(C(=O)N[C@@H]2CCC[C@H]2OCc2ccccc2)[nH]c(=O)[nH]c1=O [Example 63, 5-amino-N-((1R,2R)-2-(benzyloxy)cyclopentyl)-2,6-dioxo-1,2,3,6-tetrahydropyrimidine-4-carboxamide]
12 | ≥ 5.00 | Nc1c(C(=O)N[C@H]2CC[C@H](C(=O)Nc3ccccc3)C2)[nH]c(=O)[nH]c1=O [Example 129, 5-amino-2,6-dioxo-N-((1S,3S)-3-(phenylcarbamoyl)cyclopentyl)-1,2,3,6-tetrahydropyrimidine-4-carboxamide]
13 | ≥ 5.00 | CC(C)(C)COc1ccc(C2CCC(NC(=O)c3[nH]c(=O)[nH]c(=O)c3O)C2)cc1 (stereo not drawn) [Example 293, 5-hydroxy-N-(3-(4-(neopentyloxy)phenyl)cyclopentyl)-2,6-dioxo-1,2,3,6-tetrahydropyrimidine-4-carboxamide]
14 | ≥ 5.00 | Nc1c(C(=O)N[C@@H]2CC[C@H](c3ccc(Cl)c(Cl)c3)C2)[nH]c(=O)[nH]c1=O [Example 74, 5-amino-N-((1R,3S)-3-(3,4-dichlorophenyl)cyclopentyl)-2,6-dioxo-1,2,3,6-tetrahydropyrimidine-4-carboxamide]
15 | ≥ 5.00 | O=C(Cc1ccccc1)N[C@H]1CC[C@@H](NC(=O)c2[nH]c(=O)[nH]c(=O)c2O)CC1 [Example 279, 5-hydroxy-2,6-dioxo-N-(cis-4-(2-phenylacetamido)cyclohexyl)-1,2,3,6-tetrahydropyrimidine-4-carboxamide]
16 | ≥ 5.00 | O=C(N[C@H]1CC[C@@H](c2ccccc2)CC1)c1[nH]c(=O)[nH]c(=O)c1NCCO [Example 217, 5-(2-hydroxyethylamino)-2,6-dioxo-N-(cis-4-phenylcyclohexyl)-1,2,3,6-tetrahydropyrimidine-4-carboxamide]
17 | ≥ 5.00 | COc1ccccc1C1CCC(NC(=O)c2[nH]c(=O)[nH]c(=O)c2N)C1 (stereo not drawn) [Example 141, 5-amino-N-(3-(2-methoxyphenyl)cyclopentyl)-2,6-dioxo-1,2,3,6-tetrahydropyrimidine-4-carboxamide]
18 | ≥ 5.00 | Nc1c(C(=O)NC2CCCc3ccsc32)[nH]c(=O)[nH]c1=O (stereo not drawn) [Example 46, 5-amino-2,6-dioxo-N-(4,5,6,7-tetrahydrobenzo[b]thiophen-7-yl)-1,2,3,6-tetrahydropyrimidine-4-carboxamide]
19 | ≥ 5.00 | COc1ccc2c(c1)[C@H](NC(=O)c1[nH]c(=O)[nH]c(=O)c1O)CCC2 [Example 264, (R)-5-hydroxy-N-(7-methoxy-1,2,3,4-tetrahydronaphthalen-1-yl)-2,6-dioxo-1,2,3,6-tetrahydropyrimidine-4-carboxamide]
20 | ≥ 5.00 | COC(=O)C[C@H]1C[C@H](NC(=O)c2[nH]c(=O)[nH]c(=O)c2N)c2ccccc2[C@@H]1c1ccccc1 [Example 21, methyl 2-((1S,2R,4S)-4-(5-amino-2,6-dioxo-1,2,3,6-tetrahydropyrimidine-4-carboxamido)-1-phenyl-1,2,3,4-tetrahydronaphthalen-2-yl)acetate]
21 | ≥ 5.00 | Nc1c(C(=O)NC2CCCN(c3ncccc3Cl)C2)[nH]c(=O)[nH]c1=O (stereo not drawn) [Example 183, 5-amino-N-(1-(3-chloropyridin-2-yl)piperidin-3-yl)-2,6-dioxo-1,2,3,6-tetrahydropyrimidine-4-carboxamide]
22 | ≥ 5.00 | CC(C)(C)C1CCC(NC(=O)c2[nH]c(=O)[nH]c(=O)c2N)CC1 (stereo not drawn) [Example 44, 5-amino-N-(4-tert-butylcyclohexyl)-2,6-dioxo-1,2,3,6-tetrahydropyrimidine-4-carboxamide]
23 | ≥ 5.00 | Nc1c(C(=O)N[C@@H]2CCCc3ccc(F)cc32)[nH]c(=O)[nH]c1=O [Example 40, (R)-5-amino-N-(7-fluoro-1,2,3,4-tetrahydronaphthalen-1-yl)-2,6-dioxo-1,2,3,6-tetrahydropyrimidine-4-carboxamide]
24 | ≥ 5.00 | CCOC(=O)Cn1cc(-c2ccc([C@@H]3CC[C@H](NC(=O)c4[nH]c(=O)[nH]c(=O)c4N)C3)cc2)cn1 [Example 160, ethyl 2-(4-(4-((1R,3S)-3-(5-amino 2,6-dioxo-1,2,3,6-tetrahydropyrimidine-4-carboxamido)cyclopentyl)phenyl) 1H-pyrazol-1-yl)acetate]
25 | ≥ 5.00 | O=C(N[C@@H]1CCCc2c(NCc3ccccc3)cccc21)c1[nH]c(=O)[nH]c(=O)c1O [Example 286, (R)-N-(5-(benzylamino)-1,2,3,4-tetrahydronaphthalen-1-yl)-5-hydroxy-2,6-dioxo-1,2,3,6-tetrahydropyrimidine-4-carboxamide]
26 | ≥ 5.00 | Nc1c(C(=O)N[C@@H]2CCCc3cc(NC(=O)c4ccccc4)ccc32)[nH]c(=O)[nH]c1=O [Example 105, (R)-5-amino-N-(6-benzamido-1,2,3,4-tetrahydronaphthalen-1-yl)-2,6-dioxo-1,2,3,6-tetrahydropyrimidine-4-carboxamide]
27 | ≥ 5.00 | O=C(N[C@H]1CC[C@@H](c2ccccc2)CC1)c1[nH]c(=O)n(CCCc2ccccc2)c(=O)c1O [Example 270, 5-Hydroxy-2,6-dioxo-N-(cis-4-phenylcyclohexyl)-1-(3-phenylpropyl)-1,2,3,6-tetrahydropyrimidine-4-carboxamide]
28 | ≥ 5.00 | Nc1c(C(=O)N[C@H]2CC[C@H](c3ccccc3)C2)[nH]c(=O)[nH]c1=O [Example 76, 5-amino-2,6-dioxo-N-((1S,3S)-3-phenylcyclopentyl)-1,2,3,6-tetrahydropyrimidine-4-carboxamide]
29 | ≥ 5.00 | O=C(N[C@H]1CC[C@@H](c2ccccc2)CC1)c1[nH]c(=O)[nH]c(=O)c1NCc1ccccn1 [Example 225, 2,6-dioxo-N-(cis-4-phenylcyclohexyl)-5-(pyridin-2-ylmethylamino)-1,2,3,6-tetrahydropyrimidine-4-carboxamide]
30 | ≥ 5.00 | O=C(NC1CCC(c2cccc(OCc3ccccc3)c2)C1)c1[nH]c(=O)[nH]c(=O)c1O (stereo not drawn) [Example 282, N-(3-(3-(benzyloxy)phenyl)cyclopentyl)-5-hydroxy-2,6-dioxo-1,2,3,6-tetrahydropyrimidine-4-carboxamide]
31 | ≥ 5.00 | Nc1c(C(=O)N[C@H]2CC[C@@H](NC(=O)c3cccc(OCc4ccccc4)c3)CC2)[nH]c(=O)[nH]c1=O [Example 122, 5-amino-N-(cis-4-(3-(benzyloxy)benzamido)cyclohexyl)-2,6-dioxo-1,2,3,6-tetrahydropyrimidine-4-carboxamide]
32 | ≥ 5.00 | O=C(N[C@H]1CCc2ccc(OCc3ccccc3)cc21)c1[nH]c(=O)[nH]c(=O)c1O [Example 259, (S)-N-(6-(benzyloxy)-2,3-dihydro-1H-inden-1-yl)-5-hydroxy-2,6-dioxo-1,2,3,6-tetrahydropyrimidine-4-carboxamide]
33 | ≥ 5.00 | Nc1c(C(=O)NC2CCN(c3ncccc3Cl)C2)[nH]c(=O)[nH]c1=O (stereo not drawn) [Example 186, 5-amino-N-(1-(3-chloropyridin-2-yl)pyrrolidin-3-yl)-2,6-dioxo-1,2,3,6-tetrahydropyrimidine-4-carboxamide]
